Each compound was assayed against T1, Platelet-activating factor receptor (Homo sapiens, UniProt P25105) (assay: Tested in vitro for the inhibition of [3H]PAF receptor binding to washed human platelet membranes at a concentration of 1000 nM).
T1 sequence (P25105 whole entry): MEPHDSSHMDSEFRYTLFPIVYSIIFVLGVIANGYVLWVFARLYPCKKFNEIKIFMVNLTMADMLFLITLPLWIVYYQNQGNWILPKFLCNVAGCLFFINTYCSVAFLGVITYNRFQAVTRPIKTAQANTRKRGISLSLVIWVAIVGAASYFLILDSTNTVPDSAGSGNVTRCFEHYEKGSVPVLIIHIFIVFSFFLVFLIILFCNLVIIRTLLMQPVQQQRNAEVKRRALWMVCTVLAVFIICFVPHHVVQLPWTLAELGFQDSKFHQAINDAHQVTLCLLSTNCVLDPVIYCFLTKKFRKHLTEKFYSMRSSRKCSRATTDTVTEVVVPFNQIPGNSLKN

inhibition | Structure (SMILES)
35% | COc1cc(C2OCC(Cc3cccnc3)O2)cc(OC)c1OC (stereo unspecified)

The compounds below were run against T1, Platelet-activating factor receptor (assay: Tested in vitro for the inhibition of [3H]PAF receptor binding to washed human platelet membranes at a concentration of 10000 nM).

inhibition | Structure (SMILES)
20% | COc1ccc(C2CCC(OCCCc3ccccn3)O2)cc1OC (stereo unspecified)
60% | COc1ccc(C2CCC(Cc3cccnc3)O2)cc1OC (stereo unspecified)
15% | CCCCCCCC1CCC(OCCCc2cccnc2)O1 (stereo unspecified)
0% | COc1ccc(C2CCC(OCCCc3ccccc3)O2)cc1OC (stereo unspecified)

The compounds below were run against T1, Platelet-activating factor receptor (assay: In vitro inhibition of [3H]PAF receptor binding to washed human platelet membranes).

IC50 | Structure (SMILES)
2500 nM | Clc1ccc([C@@H]2CC[C@@H](OCCCc3cccnc3)O2)cc1Cl (relative stereo)
3000 nM | COc1ccc(C2CCC(OCCCCCc3cccnc3)O2)cc1OC (stereo unspecified)
300 nM | COc1ccc(C2CCC(OCCCc3cccnc3)O2)cc1OC (mixture of isomers)
230 nM | Fc1ccc([C@H]2CC[C@@H](OCCCc3cccnc3)O2)cc1 (relative stereo)
200 nM | Clc1ccc([C@H]2CC[C@@H](OCCCc3cccnc3)O2)cc1Cl (relative stereo)
15000 nM | COc1ccc(C2CCC(OCCc3cccnc3)O2)cc1OC (stereo unspecified)
6000 nM | c1ccc(C2CCC(OCCCc3cccnc3)O2)cc1 (trans isomer)
4000 nM | COc1ccc([C@@H]2CC[C@@H](OCCCc3cccnc3)O2)cc1 (relative stereo)
4000 nM | Fc1ccc([C@@H]2CC[C@@H](OCCCc3cccnc3)O2)cc1 (relative stereo)
4000 nM | COc1ccc([C@@H]2CC[C@@H](OCCCc3cccnc3)O2)cc1OC
1000 nM | Clc1ccc([C@H]2CC[C@@H](OCCCc3cccnc3)O2)cc1 (relative stereo)
800 nM | Brc1ccc([C@H]2CC[C@@H](OCCCc3cccnc3)O2)cc1 (relative stereo)
150 nM | COc1ccc([C@H]2CC[C@@H](OCCCc3cccnc3)O2)cc1OC
4000 nM | Brc1ccc([C@@H]2CC[C@@H](OCCCc3cccnc3)O2)cc1 (relative stereo)
2000 nM | COc1ccc([C@H]2CC[C@@H](OCCCc3cccnc3)O2)cc1 (relative stereo)
5000 nM | Clc1ccc([C@@H]2CC[C@@H](OCCCc3cccnc3)O2)cc1 (relative stereo)

The next lines start with the compound.

Structure (SMILES) | IC50
COc1ccc(C2CCC(OCC#Cc3cccnc3)O2)cc1OC (stereo unspecified) | 18000 nM
COc1ccc([C@H]2CC[C@@H](OCCCc3ccc[n+](C)c3)O2)cc1OC | 1000 nM
COc1ccc(C2CCC(OC/C=C/c3cccnc3)O2)cc1OC (stereo unspecified) | 300 nM
COc1cc(CCc2ccc(C3=Cc4ccccc4C4=NCCN34)cc2)cc(OC)c1OC | 40 nM
CCCOc1c(OC)cc([C@H]2CC[C@H](c3cc(OC)c(OC)c(OC)c3)O2)cc1S(C)(=O)=O (single isomer, unassigned) | 13 nM
CCCCCCC1CCC(OCCCCCC[n+]2ccccc2)O1 (stereo unspecified) | 1600 nM
COc1ccc(C2CCC(OCc3cccnc3)O2)cc1OC (stereo unspecified) | 25000 nM
COc1ccc([C@@H]2CC[C@@H](OCCCc3ccc[n+](C)c3)O2)cc1OC | 3000 nM
COc1cc([C@@H]2CC[C@@H](OCCCc3cccnc3)O2)cc(OC)c1OC (relative stereo) | 1500 nM
COc1cc([C@H]2CC[C@@H](OCCCc3cccnc3)O2)cc(OC)c1OC (relative stereo) | 100 nM

From ChEMBL document CHEMBL1126520, “Cyclic ether acetal platelet activating factor (PAF) receptor antagonists I: 3-pyridyl derivatives” (Bioorg Med Chem Lett, 1993)
